The results in this text go back to ChEMBL document CHEMBL1151628, “Antibacterial constituents of the diatom Navicula delognei” (1984).

Active and inactive are the calls of the source. The rule behind the calls is not given here.

Test [1] concerns Proteus vulgaris. Nature of the test: Antimicrobial activity against Proteus vulgaris ATCC 13315 at 0.5 mg/disk by disk diffusion assay. In kind it is functional. In general terms: Agar diffusion results depend on both activity and mobility in agar.
In test [2] the test system is Salmonella typhimurium. Kind of test: Antimicrobial activity against Salmonella Typhimurium ATCC 14028 at 0.5 mg/disk by disk diffusion assay. It is filed as functional, Salmonella enterica subsp. enterica serovar Typhimurium.
The subject of test [3] is Staphylococcus aureus. Nature of the test: Antimicrobial activity against Staphylococcus aureus ATCC 25923 at 0.5 mg/disk by disk diffusion assay. In kind it is functional.
The next test concerns Escherichia coli. Nature of the test: Antimicrobial activity against Escherichia coli ATCC 25922 at 0.5 mg/disk by disk diffusion assay. It is filed as functional, organism-based.
Test [4] has as its system Staphylococcus epidermidis. Nature of the test: Antimicrobial activity against Staphylococcus epidermidis ATCC 12228 at 0.5 mg/disk by disk diffusion assay. It is filed as functional.
Test [5] concerns Salmonella typhimurium. Nature of the test: Antimicrobial activity against Salmonella Typhimurium ATCC 14028 at 0.1 mg/disk by disk diffusion assay. It is filed as functional, Salmonella enterica subsp. enterica serovar Typhimurium.
Another test relates to Enterobacter cloacae. Nature of the test: Antimicrobial activity against Enterobacter cloacae ATCC 23355 at 0.1 mg/disk by disk diffusion assay. In kind it is functional.
The test system of test [6] is Staphylococcus aureus. Kind of test: Antimicrobial activity against Staphylococcus aureus ATCC 25923 at 0.1 mg/disk by disk diffusion assay. It is filed as functional.
Test [7] relates to Staphylococcus epidermidis. Kind of test: Antimicrobial activity against Staphylococcus epidermidis ATCC 12228 at 0.1 mg/disk by disk diffusion assay. It is filed as functional.
The next test deals with Serratia marcescens. Kind of test: Antimicrobial activity against Serratia marcescens ATCC 8100 at 0.1 mg/disk by disk diffusion assay. In kind it is functional.
Test [8] concerns Proteus vulgaris. Kind of test: Antimicrobial activity against Proteus vulgaris ATCC 13315 at 0.1 mg/disk by disk diffusion assay. It is filed as functional.
In the next test the test system is Klebsiella pneumoniae. Nature of the test: Antimicrobial activity against Klebsiella pneumoniae ATCC 13883 at 0.1 mg/disk by disk diffusion assay. It is filed as functional.

Turning to `C=CC/C=C\C/C=C\C/C=C\CCCCC(=O)O`, the outcome in the test with Proteus vulgaris [1] and in the test with Escherichia coli was Active. Besides, the entries for the “inhibition zone (IZ)” value (in the test on Salmonella typhimurium [2]; in the test on Staphylococcus aureus [3]; in test [4]) were more than 4 mm, more than 2 mm and more than 2 mm, respectively.
With `CC1(C)S[C@@H]2[C@H](NC(=O)[C@H](N)c3ccccc3)C(=O)N2[C@H]1C(=O)O` [AMPICILLIN], the “inhibition zone (IZ)” value (in the test with Salmonella typhimurium [5]; in the test on Enterobacter cloacae; with Staphylococcus aureus [6]; in test [7]) was more than 4 mm in each case.
For the compound `O=C(N[C@H](CO)[C@H](O)c1ccc([N+](=O)[O-])cc1)C(Cl)Cl` [CHLORAMPHENICOL], in the test with Serratia marcescens, the “inhibition zone (IZ)” value is on record as more than 4 mm.
As to `CN(C)[C@@H]1C(O)=C(C(N)=O)C(=O)[C@@]2(O)C(O)=C3C(=O)c4c(O)cccc4[C@@](C)(O)[C@H]3C[C@@H]12` [TETRACYCLINE], the “inhibition zone (IZ)” value in the test on Proteus vulgaris [8] and in the test on Klebsiella pneumoniae was more than 4 mm in each case.
In the case of `CC/C=C\C/C=C\C/C=C\C/C=C\CCCCC(=O)O`, the “inhibition zone (IZ)” value (with Proteus vulgaris [1]; in the test on Salmonella typhimurium [2]; in the test on Staphylococcus aureus [3]; in [4]) was more than 2 mm each time. The result in the test on Escherichia coli was Active.
Regarding `CC/C=C\C/C=C\C/C=C\C/C=C\C/C=C\CCCC(=O)OC/C=C(\C)CCCC(C)CCCC(C)CCCC(C)C` (stereo unspecified), the result with Proteus vulgaris [1] was Active. For the same compound, the entries for the “inhibition zone (IZ)” value (in the test with Salmonella typhimurium [2]; in the test on Staphylococcus aureus [3]; in test [4]) were more than 2 mm, more than 4 mm and more than 2 mm, respectively.
